Activity calls are given as the source filed them. The rule behind the calls is not given here.
System: Influenza A virus
Assay type: functional, organism-based
Conditions: A/Berlin/55/08(H1N1), MDCK

## CCC(CC)O[C@@H]1C=C(C(=O)O)C[C@H](N)[C@H]1NC(C)=O [OSELTAMIVIR CARBOXYLATE]
  Activity: Active

## CC(=O)N[C@H]1[C@H]([C@H](O)[C@H](O)CO)OC(C(=O)O)=C[C@@H]1NC(=N)N [ZANAMIVIR]
  Activity: Active

— ChEMBL document CHEMBL3120142 (J Med Chem, 2014)
